Data reported in patent publication US20070259056A1, “Anti-Tumour Terpene Compounds” (COMPTON DEVELOPMENTS LTD., priority 2003, published 2007).
Read-outs that look alike come from different tables or passages of the source.

Legend:
[1] = test system: A375 cells (a human skin melanoma cell line); assay: MTT assay, cytotoxicity on A375 cells; assay type: cell-based; details: for % Cytoxicity: A375 cells; for concentration inducing / required to initiate cell death: A375 tumour cells
mammals = details: cited from earlier work
[2] = test system: S180 murine sarcoma cells; assay: MTT assay, cytotoxicity on S180 cells; details: S180 and human tumour cells in culture
Procedure: Two transformed cell lines were chosen for MTT analysis, S180 murine sarcoma cells and HT1080 human fibrosarcoma cells. Cells were seeded in 96-well microliter plates at a density of 2×10^5 cells/ml and incubated at 37° C. and 5% CO2 for 24 hours prior to treatment. 200 ul PBS was added to the wells on the outer edges of the plate to reduce evaporation loss from the wells containing cells.
Serial dilutions were carried out to enable a range of progressively more dilute concentrations of extract to be tested. The same procedure was followed to make solutions of staurosporine and ethanol of the same concentrations. Staurosporine, an agent with well-established cytotoxic properties, was incorporated into the study to provide a benchmark to compare the cytotoxicity of the extracts against.
Careful mixing with a pipette ensured thorough dissolution. […] This was done immediately after addition of DMSO.
The method was also employed to test the impact of identified components of the Haddi extracts. Thus, trans-β-Ocimene and γ-Bisabolene both major components of the Haddi extract were tested using the MTT assay to estimate their impact on tumour cell cytotoxicity and viability, see FIGS. 7 to 10.

[3] = test system: mixed cultures containing fibroblast cells and tumour cells; assay: Mixed tissue culture of fibroblast cells and tumour cells; assay type: cell-based; details: 12 hrs
Procedure: In addition when mixed cultures containing fibroblast cells and tumour cells are treated, the normal fibroblasts appear to survive while the tumour cells go into apoptosis.
The results of such an experiment are shown in FIG. 14, wherein a mixed tissue culture has been treated for 12 hrs with 5 uM Bisabolene. […] In FIG. 15 a mixed tissue culture has been treated for 12 hrs with 100 uM Ocimene.

[4] = test system: MM6 cells (monocyte leukaemic cell line); details: for % Cytoxicity: MM6 cells; for concentration as low as which high cell death is induced: MM6 tumour cells
From the text: The MTT assay is a powerful, quantitative and highly reliable colourimetric assay that measures the viability of a cell population. […] The amount of formazan produced is directly proportional to the number of viable cells in the test population. The formazan product formed can be dissolved in dimethyl sulfoxide (DMSO), which enables quantification of the product to be obtained via spectrophotometry. A population containing largely viable cells will produce high levels of the formazan product and will therefore give a deep purple solution upon dissolution with DMSO, while a cell population that has mostly dead cells will produce a colourless solution. The amount of light absorbed (at a wavelength of 575 nm) can be converted to % cytotoxicity by using the following calculation: [control absorption−test absorption]X 100=% cytotoxicity control absorption Experimental Protocol
100 ul of each concentration of each extract/control were added to 3 separate wells in a labeled microtitre plate. In the untreated control wells 100 ul of medium was added—all wells having a total final volume of 200 ul. 3 identical replicates of this were carried out for testing after 24, 48 and 72 hours. All plates were incubated at 37° C. and 5% CO2 until reading.
After the required length of time (i.e. 24, 48 or 72 hours) 20 ul MTT solution (5 mg/ml) was added to each well (excluding wells containing only PBS). Plates were then returned to the incubator (under the same conditions) for a further 4 hours. MTT is photosensitive so all plates were covered in foil to minimise exposure to light. After 4 hours all medium from the wells was pipetted out (care was taken to avoid disturbing the formazan crystals) and 200 ul DMSO was added to each well. Careful mixing with a pipette ensured thorough dissolution. All plates were then read on a spectrophotometer for absorption of light at 575 nm. This was done immediately after addition of DMSO.

[5] = test system: HT1080 human fibrosarcoma cells; assay: Annexin V bioassay of apoptosis in HT1080 cells; assay type: cell-based; details: 5 uM, 12 hours
From the text: The Annexin V bioassay is used to distinguish between cells dying via the apoptotic route and cells dying by necrosis. Knowing how ocimene and bisabolene cause cell death is crucial. […] This is because necrotic cells burst and release their content into the surroundings, thus causing an inflammatory response that is potentially harmful to neighbouring, non-target cells.
The Annexin V bioassay utilises an early change in the plasma membrane of apoptotic cells during which phosphatidylserine (PS), a membrane bound phospholipid, is translocated from the inner surface of the membrane bi-layer to the outer surface—thus bringing the PS into contact with the environment. This change occurs before membrane bleeding and far earlier than DNA fragmentation thus making it an ideal marker for early apoptotic cells. Annexin V is a Ca^2+-dependent phospholipid binding protein with a high affinity for PS. In this study the Annexin V was coupled to a fluorescent marker called FITC, to generate an Annexin V-FITC conjugate. FITC fluoresces with an intense green/yellow colour when viewed via fluorescent microscopy. Thus, early apoptotic cells will bind Annexin V-FITC on their plasma membranes and fluoresce- green/yellow, whereas late apoptotic cells will fluoresce green/yellow in the cytoplasm as well as at the membrane.
To identify necrotic cells another dying agent, propidium iodide (PI) is used. […]

**Q.** With `C=C/C(C)=C/CC=C(C)C` [trans-β-Ocimene, trans-β-ocimene] as the molecule, how does the “% Cytoxicity” value ([1]; 46 μM, 24 hours) read?
**A.** 7%

**Q.** And the “% Cytoxicity” value ([1]; 46 μM, 48 hours)?
**A.** −2%

**Q.** What about the “% Cytoxicity” value ([1]; 46 μM, 72 hours) of the same molecule?
**A.** −33%

**Q.** And the “% Cytoxicity” value ([1]; 92 μM, 24 hours)?
**A.** −11%

**Q.** What about the “% Cytoxicity” value ([1]; 92 μM, 48 hours) of the same molecule?
**A.** −25%

**Q.** What about the “% Cytoxicity” value ([1]; 92 μM, 72 hours) of the same molecule?
**A.** −31%

**Q.** And the “% Cytoxicity” value ([1]; 184 μM, 24 hours)?
**A.** 7%

**Q.** And the “% Cytoxicity” value ([1]; 184 μM, 48 hours)?
**A.** 8%

**Q.** And the “% Cytoxicity” value ([1]; 184 μM, 72 hours)?
**A.** −10%

**Q.** What about the “% Cytoxicity” value ([1]; 368 μM, 24 hours) of the same molecule?
**A.** 29%

**Q.** And the “% Cytoxicity” value ([1]; 368 μM, 48 hours)?
**A.** 35%

**Q.** And the “% Cytoxicity” value ([1]; 368 μM, 72 hours)?
**A.** 31%

**Q.** And the toxicity to mammals (mammals)?
**A.** non toxic to mammals

**Q.** And the tumour cell death ([2]; concentrations above 200 mM)?
**A.** ~100%

**Q.** What about the “survival of fibrocytes versus tumour cells in mixed culture” value ([3]; 100 uM) of the same molecule?
**A.** fibrocytes spread out and survive whilst tumour cells round off to form apoptotic bodies

**Q.** Which “% Cytoxicity” value ([1]; 28 μM, 24 hours) does the source give for `CC(C)=CCC[C@](C)(O)C1CC=C(C)CC1` (stereo partly drawn) [α-Bisabolol, α-bisabolol] here?
**A.** −2%

**Q.** What about the “% Cytoxicity” value ([1]; 28 μM, 72 hours) of the same molecule?
**A.** 1%

**Q.** And the “% Cytoxicity” value ([1]; 56 μM, 24 hours)?
**A.** −27%

**Q.** What about the “% Cytoxicity” value ([1]; 56 μM, 72 hours) of the same molecule?
**A.** 10%

**Q.** And the “% Cytoxicity” value ([1]; 112 μM, 24 hours)?
**A.** 10%

**Q.** And the “% Cytoxicity” value ([1]; 112 μM, 72 hours)?
**A.** 26%

**Q.** And the “% Cytoxicity” value ([1]; 225 μM, 24 hours)?
**A.** 31%

**Q.** What about the “% Cytoxicity” value ([1]; 225 μM, 72 hours) of the same molecule?
**A.** 41%

**Q.** What about the “concentration inducing / required to initiate cell death” value [1] of the same molecule?
**A.** 225 µM

**Q.** What about the “% Cytoxicity” value ([4]; 0.13 μM, 24 hours) of the same molecule?
**A.** 48%

**Q.** And the “% Cytoxicity” value ([4]; 0.13 μM, 72 hours)?
**A.** 53%

**Q.** And the “% Cytoxicity” value ([4]; 0.25 μM, 24 hours)?
**A.** 48%

**Q.** And the “% Cytoxicity” value ([4]; 0.25 μM, 72 hours)?
**A.** 54%

**Q.** What about the “% Cytoxicity” value ([4]; 2.5 μM, 24 hours) of the same molecule?
**A.** 46%

**Q.** And the “% Cytoxicity” value ([4]; 2.5 μM, 72 hours)?
**A.** 51%

**Q.** And the “% Cytoxicity” value ([4]; 10 μM, 24 hours)?
**A.** 33%

**Q.** And the “% Cytoxicity” value ([4]; 10 μM, 72 hours)?
**A.** 49%

**Q.** What about the “concentration as low as which high cell death is induced” value [4] of the same molecule?
**A.** 0.13 µM

**Q.** For `CC(C)=CCC/C(C)=C1/CC=C(C)CC1` [γ-Bisabolene, γ-bisabolene], which “% Cytoxicity” value ([1]; 0.13 μM, 24 hours) is on record?
**A.** 15%

**Q.** And the “% Cytoxicity” value ([1]; 0.13 μM, 48 hours)?
**A.** 5%

**Q.** And the “% Cytoxicity” value ([1]; 0.13 μM, 72 hours)?
**A.** 13%

**Q.** And the “% Cytoxicity” value ([1]; 0.25 μM, 24 hours)?
**A.** 10%

**Q.** And the “% Cytoxicity” value ([1]; 0.25 μM, 48 hours)?
**A.** 7%

**Q.** What about the “% Cytoxicity” value ([1]; 0.25 μM, 72 hours) of the same molecule?
**A.** 50%

**Q.** What about the “% Cytoxicity” value ([1]; 2.5 μM, 24 hours) of the same molecule?
**A.** 15%

**Q.** And the “% Cytoxicity” value ([1]; 2.5 μM, 48 hours)?
**A.** 55%

**Q.** What about the “% Cytoxicity” value ([1]; 2.5 μM, 72 hours) of the same molecule?
**A.** 71%

**Q.** What about the “% Cytoxicity” value ([1]; 10 μM, 24 hours) of the same molecule?
**A.** 23%

**Q.** What about the “% Cytoxicity” value ([1]; 10 μM, 48 hours) of the same molecule?
**A.** 64%

**Q.** What about the “% Cytoxicity” value ([1]; 10 μM, 72 hours) of the same molecule?
**A.** 77%

**Q.** What about the “concentration inducing / required to initiate cell death” value [1] of the same molecule?
**A.** 0.25 µM

**Q.** And the “concentration at which potent” value [2]?
**A.** around 50 mM

**Q.** What about the “induction of apoptotic cell death (Annexin V)” value [5] of the same molecule?
**A.** induction of apoptotic cell death

**Q.** What about the “survival of fibrocytes versus tumour cells in mixed culture” value ([3]; 5 uM) of the same molecule?
**A.** fibrocytes survive whilst tumour cells round off as apoptotic bodies

**Q.** And the “% Cytoxicity” value ([4]; 0.13 μM, 24 hours)?
**A.** 3%

**Q.** What about the “% Cytoxicity” value ([4]; 0.13 μM, 48 hours) of the same molecule?
**A.** −37%

**Q.** And the “% Cytoxicity” value ([4]; 0.13 μM, 72 hours)?
**A.** 13%

**Q.** What about the “% Cytoxicity” value ([4]; 0.25 μM, 24 hours) of the same molecule?
**A.** 49%

**Q.** What about the “% Cytoxicity” value ([4]; 0.25 μM, 48 hours) of the same molecule?
**A.** 68%

**Q.** And the “% Cytoxicity” value ([4]; 0.25 μM, 72 hours)?
**A.** 80%

**Q.** And the “% Cytoxicity” value ([4]; 2.5 μM, 24 hours)?
**A.** 51%

**Q.** And the “% Cytoxicity” value ([4]; 2.5 μM, 48 hours)?
**A.** 70%

**Q.** What about the “% Cytoxicity” value ([4]; 2.5 μM, 72 hours) of the same molecule?
**A.** 78%

**Q.** And the “% Cytoxicity” value ([4]; 10 μM, 24 hours)?
**A.** 45%

**Q.** What about the “% Cytoxicity” value ([4]; 10 μM, 48 hours) of the same molecule?
**A.** 67%

**Q.** And the “% Cytoxicity” value ([4]; 10 μM, 72 hours)?
**A.** 78%

**Q.** What about the “concentration as low as which high cell death is induced” value [4] of the same molecule?
**A.** 0.25 µM
